Broadly, the IC50 is the point on the concentration scale where inhibition reaches its midpoint.

Each structure is given as a SMILES string.

The target of the first test is T1, human p38 kinase alpha (Homo sapiens, UniProt Q16539).
T1 construct: GST (N, cleaved yes); made in house; host or cells: E. coli DH10B
T1 sequence (Q16539 whole entry): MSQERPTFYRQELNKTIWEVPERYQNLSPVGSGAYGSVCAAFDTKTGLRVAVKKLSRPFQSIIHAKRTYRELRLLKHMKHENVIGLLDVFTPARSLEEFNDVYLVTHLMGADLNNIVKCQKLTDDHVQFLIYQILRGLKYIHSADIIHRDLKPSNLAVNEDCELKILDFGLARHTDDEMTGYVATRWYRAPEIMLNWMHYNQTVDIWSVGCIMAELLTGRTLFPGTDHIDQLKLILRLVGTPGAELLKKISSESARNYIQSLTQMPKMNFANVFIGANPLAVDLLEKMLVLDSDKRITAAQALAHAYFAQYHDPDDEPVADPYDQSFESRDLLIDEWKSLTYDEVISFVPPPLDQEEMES
Description: p38 kinase in vitro assay, phosphorylation of biotinylated PHAS-I with 32P-ATP. The note with it: @ 1.0 uM. It counts as biochemical.
On to `CC(C)C(=O)NCCCc1[nH]nc(-c2ccc(F)cc2)c1-c1ccncc1` [Example B-1160], for which the “P38 alpha kinase % inhib @ conc. (uM)” value is given as 79.0% @.
On the same count and under the same terms, for `CC(=O)OC(C)(C)C(=O)NCCCc1[nH]nc(-c2ccc(F)cc2)c1-c1ccncc1` [Example B-1163] the value was 74.0% @; for `O=C(NCCCc1[nH]nc(-c2ccc(F)cc2)c1-c1ccncc1)c1cccc(Br)c1` [Example B-1167], 70.0% @; for `O=C(NCCCc1[nH]nc(-c2ccc(F)cc2)c1-c1ccncc1)c1ccc(I)cc1` [Example B-1168], 66.0% @.
`O=C(NCCCc1[nH]nc(-c2ccc(F)cc2)c1-c1ccncc1)c1ccno1` [Example B-1169]: the “P38 alpha kinase % inhib @ conc. (uM)” value came out at 80.0% @.
Still for that read-out and setting: under `COCC(=O)NCCCc1[nH]nc(-c2ccc(F)cc2)c1-c1ccncc1` [Example B-1171] stands 78.0% @; under `COc1ccccc1C(=O)NCCCc1[nH]nc(-c2ccc(F)cc2)c1-c1ccncc1` [Example B-1172], 68.0% @.
With `O=C(NCCCc1[nH]nc(-c2ccc(F)cc2)c1-c1ccncc1)c1ccccc1C(F)(F)F` [Example B-1173], the “P38 alpha kinase % inhib @ conc. (uM)” value is 65.0% @.
With `O=C(NCCCc1[nH]nc(-c2ccc(F)cc2)c1-c1ccncc1)c1ccc(F)c(F)c1F` [Example B-1174], the “P38 alpha kinase % inhib @ conc. (uM)” value stood at 80.0% @.
In the case of `COc1cccc(CC(=O)NCCCc2[nH]nc(-c3ccc(F)cc3)c2-c2ccncc2)c1` [Example B-1178], the “P38 alpha kinase % inhib @ conc. (uM)” value amounted to 92.0% @.
For `Cc1ccc(C(=O)NCCCc2[nH]nc(-c3ccc(F)cc3)c2-c2ccncc2)cc1` [Example B-1179], the “P38 alpha kinase % inhib @ conc. (uM)” value was 86.0% @.
Regarding `O=C(NCCCc1[nH]nc(-c2ccc(F)cc2)c1-c1ccncc1)c1ccccc1` [Example B-1180], the “P38 alpha kinase % inhib @ conc. (uM)” value turned out to be 78.0% @.
For `O=C(NCCCc1[nH]nc(-c2ccc(F)cc2)c1-c1ccncc1)C1CCCC1` [Example B-1181], the “P38 alpha kinase % inhib @ conc. (uM)” value stood at 79.0% @.
Same read-out and setting: under `O=C(NCCCc1[nH]nc(-c2ccc(F)cc2)c1-c1ccncc1)c1cccnc1` [Example B-1182] stands 72.0% @.
The same measure, in the same setting: for `O=C(NCCCc1[nH]nc(-c2ccc(F)cc2)c1-c1ccncc1)c1ccncc1` [Example B-1183] the value was 77.0% @; for `O=C(NCCCc1[nH]nc(-c2ccc(F)cc2)c1-c1ccncc1)c1ccccn1` [Example B-1184], 69.0% @.
Consider `CC(Oc1ccccc1)C(=O)NCCCc1[nH]nc(-c2ccc(F)cc2)c1-c1ccncc1` (centres unmarked) [Example B-1186], for which the “P38 alpha kinase % inhib @ conc. (uM)” value stood at 83.0% @.
As to `CC(C)COC(=O)NCCCc1[nH]nc(-c2ccc(F)cc2)c1-c1ccncc1` [Example B-1187], the “P38 alpha kinase % inhib @ conc. (uM)” value came to 76.0% @.
In the case of `O=C(NCCCc1[nH]nc(-c2ccc(F)cc2)c1-c1ccncc1)c1cnc2ccccc2n1` [Example B-1189], the “P38 alpha kinase % inhib @ conc. (uM)” value came to 68.0% @.
Same read-out and setting: under `O=S(=O)(NCCCc1[nH]nc(-c2ccc(F)cc2)c1-c1ccncc1)c1ccc(F)cc1` [Example B-1190] stands 78.0% @; under `O=S(=O)(NCCCc1[nH]nc(-c2ccc(F)cc2)c1-c1ccncc1)c1ccccc1` [Example B-1191], 74.0% @.
In the case of `CC(C)S(=O)(=O)NCCCc1[nH]nc(-c2ccc(F)cc2)c1-c1ccncc1` [Example B-1192], the “P38 alpha kinase % inhib @ conc. (uM)” value stood at 84.0% @.
In the case of `O=S(=O)(C=Cc1ccccc1)NCCCc1[nH]nc(-c2ccc(F)cc2)c1-c1ccncc1` [Example B-1193], the “P38 alpha kinase % inhib @ conc. (uM)” value is given as 69.0% @.
Still for that read-out and setting: under `O=S(=O)(Cc1ccccc1)NCCCc1[nH]nc(-c2ccc(F)cc2)c1-c1ccncc1` [Example B-1194] stands 87.0% @; under `O=S(=O)(NCCCc1[nH]nc(-c2ccc(F)cc2)c1-c1ccncc1)c1ccc(F)cc1F` [Example B-1195], 52.0% @; under `O=S(=O)(NCCCc1[nH]nc(-c2ccc(F)cc2)c1-c1ccncc1)C(F)(F)F` [Example B-1196], 74.0% @.
Turning to `O=S(=O)(NCCCc1[nH]nc(-c2ccc(F)cc2)c1-c1ccncc1)c1ccccc1F` [Example B-1197], the “P38 alpha kinase % inhib @ conc.” value is on record as 77.0% @.
With `CCCS(=O)(=O)NCCCc1[nH]nc(-c2ccc(F)cc2)c1-c1ccncc1` [Example B-1198], the “P38 alpha kinase % inhib @ conc.” value turned out to be 92.0% @.
Take `CCCCS(=O)(=O)NCCCc1[nH]nc(-c2ccc(F)cc2)c1-c1ccncc1` [Example B-1199]: the “P38 alpha kinase % inhib @ conc.” value was 87.0% @.
Still for that read-out and setting: for `CCS(=O)(=O)NCCCc1[nH]nc(-c2ccc(F)cc2)c1-c1ccncc1` [Example B-1200] the value was 95.0% @; for `CS(=O)(=O)NCCCc1[nH]nc(-c2ccc(F)cc2)c1-c1ccncc1` [Example B-1201], 84.0% @; for `COc1ccc(S(=O)(=O)NCCCc2[nH]nc(-c3ccc(F)cc3)c2-c2ccncc2)cc1` [Example B-1202], 71.0% @.
On the same count and under the same terms, for `O=S(=O)(NCCCc1[nH]nc(-c2ccc(F)cc2)c1-c1ccncc1)c1cccs1` [Example B-1203] the value was 84.0% @; for `Cc1ccc(S(=O)(=O)NCCCc2[nH]nc(-c3ccc(F)cc3)c2-c2ccncc2)cc1` [Example B-1204], 68.0% @; for `COc1ccc(S(=O)(=O)NCCCc2[nH]nc(-c3ccc(F)cc3)c2-c2ccncc2)cc1OC` [Example B-1205], 74.0% @.
On to `CC(C)NC(=O)NCCCc1[nH]nc(-c2ccc(F)cc2)c1-c1ccncc1` [Example B-1206], for which the “P38 alpha kinase % inhib @ conc.” value was determined as 81.0% @.

Staying with this test, now noted: in vitro P38-alpha kinase inhibition; read-out: P38 alpha kinase IC50.
As for `Cc1ccc(S(C)(=O)=O)cc1S(=O)(=O)NCCc1[nH]nc(-c2ccc(F)cc2)c1-c1ccncc1` [Example B-1119], the IC50 amounted to 350 nM.
On the same count and under the same terms, for `Cc1ccc(C(=O)NCCc2[nH]nc(-c3ccc(F)cc3)c2-c2ccncc2)cc1` [Example B-1122] the value was 1840 nM; for `O=C(NCCc1[nH]nc(-c2ccc(F)cc2)c1-c1ccncc1)c1cccc(C(F)(F)F)c1` [Example B-1123], 2930 nM; for `O=C(NCCc1[nH]nc(-c2ccc(F)cc2)c1-c1ccncc1)c1cc2ccccc2s1` [Example B-1124], 1490 nM.
Consider `CC(C)c1cc(C(C)C)c(C(=O)NCCc2[nH]nc(-c3ccc(F)cc3)c2-c2ccncc2)c(C(C)C)c1` [Example B-1125], for which the 50% inhibitory concentration (IC50) was 560 nM.
`O=C(NCCc1[nH]nc(-c2ccc(F)cc2)c1-c1ccncc1)c1cccc2ccccc12` [Example B-1128]: the IC50 was found to be 2550 nM.
On the same count and under the same terms, under `O=C(NCCc1[nH]nc(-c2ccc(F)cc2)c1-c1ccncc1)c1ccc(F)c(F)c1` [Example B-1129] stands 1070 nM.
For the compound `O=C(NCCc1[nH]nc(-c2ccc(F)cc2)c1-c1ccncc1)c1c(F)ccc(F)c1F` [Example B-1131], the half-maximal inhibitory concentration (IC50) stood at 76 nM.
The same measure, in the same setting: for `Cc1cc(C)c(C(=O)NCCc2[nH]nc(-c3ccc(F)cc3)c2-c2ccncc2)c(C)c1` [Example B-1133] the value was 380 nM; for `O=C(NCCc1[nH]nc(-c2ccc(F)cc2)c1-c1ccncc1)c1cc(C(F)(F)F)ccc1F` [Example B-1134], 1710 nM.
On the same count and under the same terms, under `O=C(NCCc1[nH]nc(-c2ccc(F)cc2)c1-c1ccncc1)c1c(F)cc(F)cc1F` [Example B-1135] stands 230 nM.
In the case of `O=C(NCCc1[nH]nc(-c2ccc(F)cc2)c1-c1ccncc1)c1ccc(C(F)(F)F)cc1F` [Example B-1136], the half-inhibitory concentration (IC50) was 1170 nM.
`O=C(NCCc1[nH]nc(-c2ccc(F)cc2)c1-c1ccncc1)c1c(F)cccc1C(F)(F)F` [Example B-1137]: the IC50 came out at 38 nM.
Same read-out and setting: under `O=C(NCCc1[nH]nc(-c2ccc(F)cc2)c1-c1ccncc1)c1ccc(F)c(C(F)(F)F)c1` [Example B-1140] stands 1680 nM; under `O=C(NCCc1[nH]nc(-c2ccc(F)cc2)c1-c1ccncc1)c1cc(F)cc(C(F)(F)F)c1` [Example B-1141], 2470 nM; under `Cc1cccc(C(=O)NCCc2[nH]nc(-c3ccc(F)cc3)c2-c2ccncc2)c1` [Example B-1143], 170 nM.
On the same count and under the same terms, for `O=C(NCCc1[nH]nc(-c2ccc(F)cc2)c1-c1ccncc1)c1ccc(Cl)cc1Cl` [Example B-1144] the value was 440 nM; for `O=C(NCCc1[nH]nc(-c2ccc(F)cc2)c1-c1ccncc1)c1cccc(F)c1` [Example B-1145], 1070 nM.
On the same count and under the same terms, under `O=C(NCCc1[nH]nc(-c2ccc(F)cc2)c1-c1ccncc1)c1cccc(F)c1F` [Example B-1146] stands 470 nM; under `O=C(NCCc1[nH]nc(-c2ccc(F)cc2)c1-c1ccncc1)c1c(Cl)cccc1Cl` [Example B-1147], 95 nM.
Turning to `O=C(NCCc1[nH]nc(-c2ccc(F)cc2)c1-c1ccncc1)c1cc(F)ccc1F` [Example B-1148], the IC50 stood at 430 nM.
In the case of `O=C(NCCc1[nH]nc(-c2ccc(F)cc2)c1-c1ccncc1)c1cc(F)c(F)cc1F` [Example B-1149], the IC50 came to 1550 nM.
Regarding `O=C(NCCc1[nH]nc(-c2ccc(F)cc2)c1-c1ccncc1)c1ccccc1F` [Example B-1150], the IC50 was 470 nM.
In the case of `O=C(NCCc1[nH]nc(-c2ccc(F)cc2)c1-c1ccncc1)c1c(F)cccc1F` [Example B-1151], the IC50 worked out at 320 nM.
On the same count and under the same terms, under `O=C(NCCc1[nH]nc(-c2ccc(F)cc2)c1-c1ccncc1)c1ccc(F)cc1F` [Example B-1152] stands 730 nM; under `O=C(NCCc1[nH]nc(-c2ccc(F)cc2)c1-c1ccncc1)c1cccc(Cl)c1` [Example B-1153], 2220 nM.
On the same count and under the same terms, under `O=C(NCCc1[nH]nc(-c2ccc(F)cc2)c1-c1ccncc1)c1ccccc1Br` [Example B-1154] stands 85 nM; under `O=C(NCCc1[nH]nc(-c2ccc(F)cc2)c1-c1ccncc1)c1cccs1` [Example B-1156], 270 nM.
Same read-out and setting: under `Cc1noc(C)c1C(=O)NCCc1[nH]nc(-c2ccc(F)cc2)c1-c1ccncc1` [Example B-1157] stands 260 nM.

(Values after patent US6979686B1, “Substituted pyrazoles as p38 kinase inhibitors” (Pharmacia Corporation, priority 2001, dated 2005).)
